Assay results as given in patent US11602514B2, “Medicament having anti-inflammatory bowel disease function, and preparation method therefor and application thereof” (SUZHOU PHARMAVAN CO., LTD, priority 2018, dated 2023).
“Also recorded” adds a separate entry of the source.

How the values were obtained:
[1] = tested on: mouse macrophages RAW264.7; assay: effect on proliferation activity of mouse macrophages RAW264.7; assay type: cell-based; conditions: 80 μM; n=3; FIG. 4
[2] = tested on: PGE2 secreted by mouse macrophages RAW264.7 induced by LPS; assay: PGE2 secreted by LPS-induced RAW264.7 macrophages (ELISA); assay type: cell-based; conditions: for PGE2: LPS alone 1154.90 ± 84.20, control −407.37 ± 57.67
Method: (§1) Effects of myricanol derivatives on the expression of inflammatory factors such as IL-6, TNF-α, PEG2 secreted by a mouse macrophage cell strain RAW 264.7 induced by bacterial lipopolysaccharide (hereinafter referred to as LPS) stimulus: A pre-prepared cell suspension was inoculated in a 96-well plate at 15000 cells/well and 100 μl/well and cultured overnight in an incubator with 5% CO2 at 37° C. At 80% cell confluence, the original culture medium was discarded, and each well was added with 100 μl of prepared drug solution to be tested with a different concentration, cultured for 1 h, and then added with a LPS solution, where the final concentration of LPS in the culture system was 100 ng/mL. Each concentration was set with 3 parallel wells, and a cell control group (no drug and no solvent) and a blank medium control group (no cells, a well for zero adjustment) were set. They were cultured for another 24 h. Cell culture supernatants were aspirated, and an R&D ELISA detection kit (M6000B; MTA00B; VAL601) was used for detecting the expression of the inflammatory factors such as IL-6, TNF-α, and PEG2 in each group. Cell proteins were collected, and a […] method was used for detecting COX-2 protein expression in each group.

SD rats = assay: acute toxicity, single oral dose; assay type: in vivo; conditions: single intragastric administration, 14 days observation
Excerpt: (§2) Trial method: 30 SD rats, half male and half female, were used. The average weight was 160-200 g for female rats and 180-220 g for male rats when grouped. An individual weight should be within ±20% of the average weight. Before the test, animals needed to accommodate to the environment for at least 5 days, and healthy rats (female rats should be not pregnant) were selected as test animals. Matter detected during the accommodation period mainly was: whether the rats were consistent with quality indexes required in the order; detection of general conditions; and whether the weight was within the weight range required by the test. Unqualified abnormal animals were excluded from the test. A single dosage was orally administered to rats at a low, medium, or high dose. […] A control group was set with the oral administration of the same volume of solvent.
(§3) The rats were observed about 0-2 h and 4-6 h after each administration. If a toxicity symptom occurs, the rats may be observed more times. (2) Gross anatomical observation: on the 14th day of the test, all surviving rats in each group were dissected and observed, and for administration sites and gross dissection, abnormal organs and tissues which were observed and found to be potentially related to test samples were photographed and recorded. (3) Disposal of dying animals: status of rats and observation time were recorded, and their weights were measured. (4) Disposal of dead animals: the time of death or when a rat was found dead were recorded. The rat was measured for weight before quickly dissected for gross observation and speculated for a cause of death.

[3] = acute toxicity, single oral dose; assay type: in vivo; conditions: both sexes, SD, rat, in vivo, po; single intragastric administration; read-out: MTD (tolerance to acute toxicity of a single dosage)
Excerpt: as §2, §3

[4] = tested on: acute IBD model induced by 5% DSS; assay: DSS-induced mouse in vivo model of IBD; set-up: species or system C57BL/6 mice; conditions: tail vein 5, 2.5, 1.25 mg/kg, 4 days
Method: Female SPF-grade C57BL/6 mice each with an age of 6 to 8 weeks were subjected to adaptive feeding for 3-7 days, and then fed with 5% aqueous solution of DSS in a free water-drinking manner (day0). The original aqueous solution of DSS was replaced with a fresh aqueous solution of DSS every 2 days. After the mice freely drank the aqueous solution of DSS for 7 days (day7), they were fed with fresh purified water. After 4 days of modeling, medicament was administered on the 5th day of modeling. Animals were administered via tail veins with 5 mg/kg, 2.5 mg/kg, and 1.25 mg/kg of the medicament for treatment. The animals were administered with the medicament for 4 continuous days, and then observed for 1 day. The experiments were terminated 24 h after the last administration.
Detection indexes: the weight of each group of animals was observed and recorded every day, and feces of each animal were collected to detect occult blood in the feces. If obvious blood in the feces cannot be determined, an occult blood detection kit was used for confirming the occult blood, and the result was recorded on an experimental record paper and photographed. When the experiments ended, animal serum was collected to detect the expression of IL-6 in the blood. At the same time, the fecal traits, occult blood, and weight change rate of each animal were scored, and the scores were added to give a DAI score for the animal. Colorectal tissue samples of the animals were collected for the subsequent pathological detection and detection of MPO in the tissue.

[5] = tested on: COX2 protein expressed by mouse macrophages RAW264.7; assay: COX2 protein expression in LPS-induced RAW264.7 macrophages (blot); assay type: cell-based; conditions: FIG. 8
Method: as §1

[6] = tested on: IL-6 secreted by mouse macrophages RAW264.7 induced by LPS; assay: IL-6 secreted by LPS-induced RAW264.7 macrophages (ELISA); assay type: cell-based; conditions: LPS 100 ng/mL, 24 h; FIG. 5
Method: as §1

COc1c2cc(c(O)c1OC)CCCCC(OS(=O)(=O)O)CCc1ccc(O)c-2c1 (centres unmarked) [compound H, 11-sulfonyloxy myricanol]
effect on proliferation activity of mouse macrophages RAW264.7 [1]: no significant effects
dose dependence of the activity for inhibiting PGE2 ([2]; FIG. 9): well dose-dependent
inhibition of PGE2 secreted by RAW264.7 induced by LPS ([2]; LPS 100 ng/mL, 24 h, FIGS. 7 and 9): significant effect of inhibiting PGE2; also recorded: strong ability to inhibit
PGE2 ([2]; LPS + 10 μM): 804.30 ± 18.46 pg/mL
PGE2 ([2]; LPS + 20 μM): 604.66 ± 97.52 pg/mL
PGE2 ([2]; LPS + 30 μM): 448.16 ± 55.26 pg/mL
PGE2 ([2]; LPS + 40 μM): 289.30 ± 109.41 pg/mL
PGE2 ([2]; LPS + 60 μM): -82.01 ± 357.30 pg/mL
PGE2 ([2]; LPS + 80 μM): -338.14 ± 138.40 pg/mL
PGE2 inhibition compared with myricanol ([2]; dose of 20 μM, FIG. 9): better inhabitation effect than myricanol
Test Endpoint (toxic side effects) (SD rats; 100 mg/kg): No obvious toxic
Test Endpoint (toxic side effects) (SD rats; 300 mg/kg): No obvious toxic
Test Endpoint (toxic side effects) (SD rats; 1000 mg/kg): No obvious toxic
Test Endpoint (toxic side effects) (SD rats; 1500 mg/kg): No obvious toxic
MTD at 14 days [3]: > 1500 mg/kg
weight change rate (weight loss trend) ([4]; FIG. 10 (5 mg/kg vs 5% DSS p<0.01)): slowing the weight loss trend
level of IL-6 protein in serum ([4]; FIG. 11): significant anti-inflammatory effect
DAI score ([4]; FIG. 12): significant effect of reducing the DAI scores
colorectal pathology (injuries of intestinal mucosa) ([4]; FIG. 13): significant effect of repairing injuries of intestinal mucosa
colorectal MPO (oxidative injuries) ([4]; FIG. 14): a certain effect of improving oxidative injuries
COX2 protein expression inhibition compared with myricanol [5]: better inhabitation effects than myricanol
inhibition of protein expression of IBD-related COX2 [5]: can inhibit
inhibition of LPS-induced IL-6 secretion of RAW264.7 cells [6]: very strong effects of inhibiting
